According to patent US12605396B2, “Methods of treating mastitis with an orthosomycin antimicrobial compound” (Intervet Inc., priority 2020, dated 2026):
≈ marks a conversion by molar mass, not a printed value.

What was measured:
[1] = tested on: Streptococcus uberis; experiment: Experimental mastitis infection model in lactating cows; assay type: in vivo; settings: oily suspension 200 mg/quarter intramammary, three consecutive times after milking, 21 days observation, FIG. 1
Description: In short, the hind quarters of 10 healthy cows were infected with Streptococcus uberis by intramammary application of 100 bacteria per quarter. At appearance of clinical signs of the challenged quarters (abnormal milk appearance, swollen/hard quarter, pain on palpation) one hind quarter of each cow was treated with an oily suspension of avilamycin at a dose of 200 mg/quarter at three consecutive times after milking. Furthermore, the neighboring infected hint quarter showing clinical signs was mock treated with formulation vehicle at the identical dose volume and schedule. Milk samples were analyzed for S. uberis over a period of 21 days.

[2] = tested on: S. uberis; experiment: MIC in bacteriological broth (CLSI VET01-A4); assay type: cell-based, Streptococcus uberis
Description: (§1) Minimal inhibitory concentrations (MIC) were determined in bacteriological broth according to Clinical and Laboratory Standard Institute (CLSI) guideline VET01-A4 [1]. The MIC results were interpreted according to the CLSI document VET01-S3 [2].

[3] = tested on: S. aureus; experiment: MIC in bacteriological broth (CLSI VET01-A4); assay type: cell-based, Staphylococcus aureus
Description: as §1

[4] = tested on: Strep. agalactiae; experiment: MIC in bacteriological broth (CLSI VET01-A4); assay type: cell-based, Streptococcus agalactiae
Description: as §1

[5] = tested on: S. aureus; experiment: MIC in full cream UHT milk with alamar Blue; assay type: cell-based, Staphylococcus aureus
Description: (§2) For MIC determination in milk, the in vitro activity was determined by measuring the minimum inhibitory concentrations (MIC) according to CLSI document VET01-A4 [1] using full cream UHT milk as test medium. About 2 h before the end of the incubation 10 μL of alamar Blue® was added to each well of the microdilution trays, resulting in a final concentration of 10% of alamar Blue®. Blue color of the medium indicated no living cells (no bacterial growth) red/pink to white color of the medium indicated living cells (bacterial growth). The MIC results were interpreted according to the CLSI document VET01-S3 [2].

[6] = tested on: mastitis-causing pathogens; experiment: Antimicrobial activity against mastitis-causing pathogens (overall statement); assay type: cell-based; settings: broth-dilution assay and milk
Description: as §1, §2

[7] = tested on: coa-neg Staph.; experiment: MIC in bacteriological broth (CLSI VET01-A4); assay type: cell-based, coagulase-negative staphylococci
Description: as §1

[8] = tested on: Truep. pyogenes; experiment: MIC in bacteriological broth (CLSI VET01-A4); assay type: cell-based, Trueperella pyogenes
Description: as §1

[9] = tested on: Strep. dysgalactiae; experiment: MIC in bacteriological broth (CLSI VET01-A4); assay type: cell-based, Streptococcus dysgalactiae
Description: as §1

[10] = bacteriological broth, 30 S. uberis isolates tested
[11] = broth, of 30 S. uberis isolates
[12] = bacteriological broth, 50 S. aureus isolates tested
[13] = broth, of 50 S. aureus isolates
[14] = bacteriological broth, 30 Strep. agalactiae isolates tested
[15] = broth, of 30 Strep. agalactiae isolates
[16] = bacteriological broth, 30 coa-neg Staph. isolates tested
[17] = broth, of 30 coa-neg Staph. isolates
[18] = bacteriological broth, 30 Truep. pyogenes isolates tested
[19] = broth, of 30 Truep. pyogenes isolates
[20] = bacteriological broth, 29 Strep. dysgalactiae isolates tested
[21] = broth, of 29 Strep. dysgalactiae isolates

COC[C@H]1O[C@@H](OC2OC[C@@H]3O[C@]4(O[C@H]3[C@H]2OC(=O)C(C)C)O[C@H](C)[C@@](O)(C(C)=O)[C@@H]2OCO[C@H]24)[C@@H](OC)[C@@H](O)[C@@H]1O[C@@H]1O[C@H](C)[C@H](OC)[C@H](O[C@H]2C[C@@]3(C)OC4(C[C@@H](O)[C@H](O[C@H]5C[C@@H](O)[C@H](OC(=O)c6c(C)c(Cl)c(O)c(Cl)c6OC)[C@@H](C)O5)[C@@H](C)O4)O[C@@H]3[C@@H](C)O2)[C@H]1O (some centres unmarked) [avilamycin]
Proportion of quarters free of S. uberis compared to quarters treated with vehicle [1]: substantially higher | MIC50 [2, 10]: 0.5 µg/mL (≈ 0.356 µM) | MIC90 [2, 10]: 0.5 µg/mL (≈ 0.356 µM) | Maximum MIC [2, 10]: 0.5 µg/mL | Minimum MIC [2, 10]: 0.125 µg/mL | Number of isolates with MIC 0.125 μg/mL [2, 11]: 1 | Number of isolates with MIC 0.25 μg/mL [2, 11]: 12 | Number of isolates with MIC 0.5 μg/mL [2, 11]: 17 | MIC50 [3, 12]: 2 µg/mL (≈ 1.42 µM) | MIC90 [3, 12]: 4 µg/mL (≈ 2.85 µM) | Maximum MIC [3, 12]: 4 µg/mL | Minimum MIC [3, 12]: 1 µg/mL | Number of isolates with MIC 1 μg/mL [3, 13]: 5 | Number of isolates with MIC 2 μg/mL [3, 13]: 19 | Number of isolates with MIC 4 μg/mL [3, 13]: 26 | MIC50 [4, 14]: ≤0.063 µg/mL | MIC90 [4, 14]: 0.125 µg/mL (≈ 0.089 µM) | Maximum MIC [4, 14]: 0.125 µg/mL | Minimum MIC [4, 14]: ≤0.063 µg/mL | Number of isolates with MIC 0.125 μg/mL [4, 15]: 13 | Number of isolates with MIC ≤0.063 μg/mL [4, 15]: 17 | Activity in milk [5]: maintained its activity | MIC90 against S. aureus compared with MIC90 of penicillin G [5]: significantly lower | Distribution of MIC values: isolates with MIC 0.125 μg/ml ([5]; S. aureus (n = 20)): 0 | Distribution of MIC values: isolates with MIC 0.25 μg/ml ([5]; S. aureus (n = 20)): 0 | Distribution of MIC values: isolates with MIC 0.5 μg/ml ([5]; S. aureus (n = 20)): 1 | Distribution of MIC values: isolates with MIC 1 μg/ml ([5]; S. aureus (n = 20)): 1 | Distribution of MIC values: isolates with MIC 2 μg/ml ([5]; S. aureus (n = 20)): 1 | Distribution of MIC values: isolates with MIC 4 μg/ml ([5]; S. aureus (n = 20)): 16 | Distribution of MIC values: isolates with MIC 8 μg/ml ([5]; S. aureus (n = 20)): 1 | Distribution of MIC values: isolates with MIC 16 μg/ml ([5]; S. aureus (n = 20)): 0 | Distribution of MIC values: isolates with MIC 32 μg/ml ([5]; S. aureus (n = 20)): 0 | Distribution of MIC values: isolates with MIC 64 μg/ml ([5]; S. aureus (n = 20)): 0 | Distribution of MIC values: isolates with MIC >64 μg/ml ([5]; S. aureus (n = 20)): 0 | Distribution of MIC values: isolates with MIC ≤0.063 μg/ml ([5]; S. aureus (n = 20)): 0 | MIC90 ([5]; S. aureus (n = 20)): 4 µg/mL (≈ 2.85 µM) | Antimicrobial activity against mastitis-causing pathogens [6]: Good antimicrobial activity | MIC50 [7, 16]: 2 µg/mL (≈ 1.42 µM) | MIC90 [7, 16]: 4 µg/mL (≈ 2.85 µM) | Maximum MIC [7, 16]: 32 µg/mL | Minimum MIC [7, 16]: 1 µg/mL | Number of isolates with MIC 1 μg/mL [7, 17]: 4 | Number of isolates with MIC 2 μg/mL [7, 17]: 13 | Number of isolates with MIC 4 μg/mL [7, 17]: 11 | Number of isolates with MIC 8 μg/mL [7, 17]: 1 | Number of isolates with MIC 32 μg/mL [7, 17]: 1 | MIC50 [8, 18]: ≤0.063 µg/mL | MIC90 [8, 18]: ≤0.063 µg/mL | Maximum MIC [8, 18]: 0.125 µg/mL | Minimum MIC [8, 18]: ≤0.063 µg/mL | Number of isolates with MIC 0.125 μg/mL [8, 19]: 1 | Number of isolates with MIC ≤0.063 μg/mL [8, 19]: 29 | MIC50 [9, 20]: 0.125 µg/mL (≈ 0.089 µM) | MIC90 [9, 20]: 0.25 µg/mL (≈ 0.178 µM) | Maximum MIC [9, 20]: 0.25 µg/mL | Minimum MIC [9, 20]: ≤0.063 µg/mL | Number of isolates with MIC 0.125 μg/mL [9, 21]: 23 | Number of isolates with MIC 0.25 μg/mL [9, 21]: 5 | Number of isolates with MIC ≤0.063 μg/mL [9, 21]: 1
